Experimental data reported in patent US5821231A, “CS-1 peptidomimetics, compositions and methods of using same” (Cytel Corporation, priority 1995, dated 1998).
Square brackets hold non-standard residues; d marks the D form. Peptide text beside a SMILES is read from it. * marks the point of attachment. PhAc = O=C(Cc1ccccc1)*

Legend:
BALB/c mice = assay: Adoptive transfer delayed type hypersensitivity in mice (oxazolone); assay type: in vivo, mouse; settings: initial study; 6 mg/kg/day s.c. pump, 24-hour; FIG. 5
Description: An adoptive transfer delayed-type hypersensitivity murine model has been developed using splenic T cells primed to oxazolone. This model is described in Elices et al., Clin. Exp. Rheum., 11(Suppl. 8):577-580 (1993), whose procedures were followed here.
Thus, BALB/c mice were shaved on the belly and painted (50 μl on the belly and 5 μl on each paw) with three percent oxazolone in acetone/olive oil (4:1) at days zero and 1. At day 5, the mice were sacrificed, their spleens removed, and splenic T cells were obtained via nylon wool columns.
Normal saline or saline containing 25×10^6 /animal of the oxazolone-immune T cells were separately injected into naive mice. The mice were then challenged by painting 10 μl of 2 percent oxazolone onto one ear each. All procedures were carried out under sterile conditions and in endotoxin-free buffers.
Prior to challenge or saline injection, the mice were implanted with pumps that subcutaneously administered normal saline, normal saline containing the compound, Compound ID No. 896.52, N-phenylacetyl-Leu-Asp-Phe-D-Pro-NH2, or normal saline containing a compound with a scrambled sequence continually at 6 mg/kg/day for a 24-hour time period. The swelling diameter at the site of challenge or saline injection was measured with a microcaliper 24 hours thereafter.
An expanded study was carried out as described above except that a scrambled compound control was not used as a control for further inhibitor compounds of Table 1 with larger groups of mice. Statistical analyses were carried out versus injection of vehicle alone.

[1] = tested on: Porcine peripheral blood lymphocytes; assay: In vitro porcine allograft model: transendothelial lymphocyte migration; assay type: cell-based; settings: 10 μg/ml in the medium; IL-1β-stimulated SMC
Description: A similar study was carried out in vitro using porcine coronary artery endothelial cells (EC; as are present in the IEL) and smooth muscle cells (SMC; as are present in the medial layer of the artery). The two cell types were cultured using a membrane transwell system, with the SMC on the bottom layer in M-199 medium (Gibco Labs.). The SMC were stimulated with 100 ng/ml of interleukin-1β (IL-1β) for 24 hours prior to the start of the assay. Porcine peripheral blood lymphocytes were separated by Ficoll-Hypaque, radiolabeled and incubated overnight (about 18 hours) on the EC.

asthmatic sheep = assay: Treatment of asthmatic sheep (Ascaris suum antigen, crossover); assay type: in vivo; settings: nebulized 1 mg/kg; FIG. 7
Description: Six asthmatic sheep were treated in a double blind cross-over study. […] This study was carried out generally as described in Abraham et al., J. Clin. Invest., 93:776-787 (1994).
The inhibitor compound used here was Compound ID No. 896.52, N-phenylacetyl-Leu-Asp-Phe-D-Pro-NH2, with a control compound that comprised the previously described compound having the same residues in a scrambled sequence. The vehicle for the nebulized compounds was phosphate-buffered saline. The compounds were administered at a dose of 1 mg/kg each, twice a day for three days prior to challenge, as well as 0.5 hours prior to and four hours post challenge on day 4. Because this was a crossover study, each animal received one or the other treatment, followed by a rest and then the other treatment. Each animal therefore served as its own control.
Post challenge airway responsiveness was also assayed. Here, specific lung resistance, SRL, returned to baseline values 24 hours after challenge, however, the sheep were hyperresponsive to inhaled carbachol at that time.

Structure (SMILES): CC(C)C[C@H](NC(=O)[C@H](CC(=O)O)NC(=O)Cc1ccccc1)C(=O)N[C@@H](Cc1ccccc1)C(=O)N1CCC[C@@H]1C(N)=O [N-phenylacetyl-Asp-Leu-Phe-D-Pro-NH2, reference compound] (PhAc-DLF[dP]-NH2)
- reduction of inflammation (swelling diameter at challenge site) (BALB/c mice): no reduction of inflammation
- reduction of transendothelial lymphocyte migration [1]: did not reduce migration
- change from baseline specific lung resistance (SRL) on challenge (asthmatic sheep): had an increase in that pulmonary function (SRL)
